# Measurements published in patent US4269839A, “Alkylthio-adenines used as bronchodilators” (Bristol-Myers Company, priority 1979, dated 1981).
# Key:
# anesthetized guinea pig = assay: In vivo hypotensive activity, arterial blood pressure (ABP) in the guinea pig; conditions: intravenous, artificial ventilation
# Description: (§1) B. In Vivo Bronchodilator and Hypotensive Activity.
# (§2) The trachea of anesthetized guinea pig was cannulated and the ITP recorded on a polygraph under artificial ventilation. Arterial blood pressure (ABP; reflecting hypotensive activity) was also measured during the experiment. Either intravenous or intraduodenal routes of administration are used. […] The ratio of hypotensive ED20 /bronchodilating ED50 reflects an assessment of the separation of desirable bronchodilator activity from undesirable cardiovascular (hypotensive) effect in the compounds.
# [1] = system: tracheal chains of guinea pig; assay: In vitro bronchodilator activity, tracheal chains of guinea pig (Magnus method); assay type: cell-based; conditions: Cavia porcellus, relative to maximum response to 0.1 mcg./ml. isoproterenol, read-out: EC50 (concentration which produces a relaxation which is 50% of the maximum response to 0.1 mcg./ml. of isoproterenol)
# Description: A. In Vitro Bronchodilator Activity.
# Tracheal chains of guinea pig were prepared by the method of A. Akcasu, Arch. Int. Pharmcodyn. […] The response to each test compound was recorded by the Magnus method and expressed as a percentage of the maximum response obtained with 0.1 mcg./ml. of isoproterenol prior to each experiment.
# [2] = system: trachea of anesthetized guinea pig; assay: In vivo bronchodilator activity, decrease in intratracheal pressure (ITP) in the guinea pig; conditions: intravenous; for ED50: Cavia porcellus, anesthetized guinea pig, artificial ventilation, read-out: ITP ED50 (dose resulting in a 50% decrease in intratracheal pressure); for Ratio ABP/ITP (hypotensive ED20/bronchodilating ED50): separation of bronchodilator activity from hypotensive effect
# Description: as §1, §2
EC50 [1] [µg/mL],SMILES,ABP ED20 (dose which reduces arterial blood pressure by 20%) (anesthetized guinea pig) [mg/kg],ED50 [2] [mg/kg],Ratio ABP/ITP (hypotensive ED20/bronchodilating ED50) [2]
,"Cn1c(=O)c2[nH]cnc2n(C)c1=O [Aminophylline, reference compound]",1.4,,
0.02,"CCCSc1nc(N)c2ncn(C3C=CCCC3)c2n1 (stereo not drawn) [Example 1, 9-(2-Cyclohexenyl)-2-n-propylthio-9H-adenine]",> 3,0.31,> 9.7
0.19,"CCCSc1nc(N)c2ncn(C3CCCCC3)c2n1 [Example 2, 9-Cyclohexyl-2-n-propylthio-9H-adenine]",> 3,1.1,> 2.7
